Assay results published in US8431596B2 (Cancer Research Technology Limited, priority 2007, dated 2013).
pIC50: −log10 of the molar value.

Target: T1, AXL (human catalytic domain) (Homo sapiens, UniProt P30530)
T1 construct: purchased Upstate Ltd. 14-512
T1 sequence (P30530 473-894): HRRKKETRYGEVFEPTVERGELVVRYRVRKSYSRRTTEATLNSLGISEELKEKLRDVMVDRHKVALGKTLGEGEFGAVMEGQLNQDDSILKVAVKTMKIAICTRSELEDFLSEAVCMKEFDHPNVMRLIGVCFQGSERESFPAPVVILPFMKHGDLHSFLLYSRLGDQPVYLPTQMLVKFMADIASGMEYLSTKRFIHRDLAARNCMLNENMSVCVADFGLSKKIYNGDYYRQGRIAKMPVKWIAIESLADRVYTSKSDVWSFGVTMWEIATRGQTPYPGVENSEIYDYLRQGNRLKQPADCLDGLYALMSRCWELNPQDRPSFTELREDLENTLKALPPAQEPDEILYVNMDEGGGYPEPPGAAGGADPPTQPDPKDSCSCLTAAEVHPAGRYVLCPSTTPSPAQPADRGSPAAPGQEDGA
Test: AXL (human catalytic domain) Enzyme Activity Assay (IMAP fluorescence polarisation)
Format: biochemical
Procedure: Biological Methods AXL (human catalytic domain) Enzyme Activity Assay Reagents
Kinase Assay Reaction Buffer: This consisted of 20 mM HEPES pH 7.0, 10 mM MgCl2, 1 mM DTT, […], 0.01% Triton X100 (v/v), and 0.01% BSA (w/v). All buffer components were purchased from Sigma-Aldrich at reagent grade or higher.
Kinase: Recombinant AXL isoform 1 (aa473-894 corresponding to Genbank Accession Number NP 068713) at 2 mg/mL (20.8 μM) was purchased from Upstate Ltd. (Product code 14-512, lot #28164U). The enzyme was stored at −80° C. and a working stock was prepared to a concentration of 30 nM by diluting 20.8 μM stock 1:693 in cold (4° C.) 1× Reaction Buffer. Final enzyme concentration in the assay was 15 nM.
Substrate: Fluorescein labelled CSK-tide 5FAM-[…]-NH2 was obtained from Molecular Devices (Product code R7270) and used at a working concentration of 200 nM by diluting the 100 μM stock 1:500 in 1× Reaction Buffer in a mix with the enzyme. A negative control (lacking enzyme) was prepared at the same concentrations. Final substrate concentration in the assay was 100 nM.
ATP: Supplied by Sigma (product code A-7699). A 100 mM ATP stock was prepared in […] and used at a working concentration of 375 μM by diluting the 100 mM stock 1:266.6 in Reaction Buffer. Final ATP concentration in the assay was 150 μM; this concentration represents the KM.ATP for this enzyme calculated in this assay.
IMAP Reagents: IMAP screening express kit was obtained from Molecular Devices (product code R8127). The binding reagent was gently re-suspended before diluting by 1:1000 in buffer (Binding Buffer is supplied as a 5× stock and so was diluted with water prior to use—this assay used 40% buffer A and 60% buffer B) and then vortexed before addition to wells. The binding reagent was used at a final dilution of 1:1333.
1 μL samples of test compounds in 10% DMSO/water were added to “test” wells by dry-spotting using a Matrix Platemate Plus. 5 μL Kinase/Substrate in Reaction Buffer were added to columns 1-22 of a Corning black low binding 384 well #6754 (90 μL volume) microplate to give 12 nM and 100 nM reaction concentration respectively. 5 μL substrate in Reaction Buffer was added to columns 23 and 24 to give 100 nM reaction concentration. 4 μL ATP in Reaction Buffer was added to all wells to give 150 μM reaction concentration. The reaction mixture was then incubated at room temperature for 60 minutes. The incubation period was followed by the addition of 20 μL IMAP Binding Reagent in Binding Buffer to all wells. The IMAP reaction detection was further incubated at room temperature overnight. The FP on a Tecan Ultra Plate reader was recorded as a single read at Ex485 Em535.
Percentage inhibition was calculated based on activity of the test sample minus the average values in the blank wells relative to the average values measured in control wells minus the average values in the blank wells.
IC50 values were calculated from 10 point dose sigmoid ‘dose-response’ curves using XIfit software (IDBS Inc, USA). Data were fitted to a 4 parameter logistic model/sigmoidal dose response defined by the following equation:
[formula] where: • A=fit minimum (locked to 0); • B=fit maximum (locked to 100); • C=fit midpoint (pre-fit to 1); and • D=slope at linear portion of curve, hillslope (pre-fit to 0.1).
The value for C represents the IC50 of the test compound.

[1] = further data set (WW-001 through WW-169, XX-001 through XX-469, YY-001 through YY-016, ZZ-001 through ZZ-003), 150 μM ATP
[2] = first data set, recombinant AXL isoform 1 aa473-894, 150 μM ATP

SMILES	pIC50 [1]	pIC50 [2]
Fc1ccc(CNc2cccc(-c3cccc4nc(Nc5ccc(OCCN6CCCC6)cc5)nn34)c2)cc1 [XX-456]	6.00 to 7.00	–
COc1ccc(-c2cccc3nc(Nc4ccc(OCCN5CCCC5)cc4)nn23)nc1 [XX-235]	6.00 to 7.00	–
O=C(Nc1nc2cccc(-c3cnn(Cc4ccccc4)c3)n2n1)C1CC1 [WW-105]	5.00 to 6.00	5.00 to 6.00
COc1ccc(-c2cccc3nc(NC(=O)CC(C)C)nn23)cc1 [WW-043]	5.00 to 6.00	5.00 to 6.00
COc1ccc(-c2nccc3nc(NC(=O)C4CC4)nn23)cc1 [ZZ-003]	5.00 to 6.00	–
Cc1nc(CNc2cccc(-c3cccc4nc(Nc5ccc(OCCN6CCCC6)cc5)nn34)c2)c(C)o1 [XX-397]	6.00 to 7.00	–
Fc1ccc(-c2cccc(-c3cccc4nc(Nc5ccc(OCCN6CCCC6)cc5)nn34)c2)cc1 [XX-467]	5.00 to 6.00	–
NCc1cccc(-c2cccc3nc(Nc4ccc(OCCN5CCCC5)cc4)nn23)c1 [XX-308, [5-(3-Aminomethyl-phenyl)-[1,2,4]triazolo[1,5-a]pyridin-2-yl]-[4-(2-pyrrolidin-1-yl-ethoxy)-phenyl]-amine]	5.00 to 6.00	–
Cc1ccc(COc2cccc(-c3cccc4nc(Nc5ccc(OCCN6CCCC6)cc5)nn34)c2)cc1 [XX-457]	5.00 to 6.00	–
CS(=O)(=O)Nc1ccc(-c2cccc3nc(Nc4ccc(OCCN5CCCC5)cc4)nn23)cc1 [XX-253]	6.00 to 7.00	–
c1cc(-c2ccc3c(c2)OCCO3)n2nc(Nc3cnc(OCCN4CCCC4)nc3)nc2c1 [XX-097]	6.00 to 7.00	–
O=C(Nc1nc2cccc(-c3ccc(OC(F)(F)F)cc3)n2n1)C1CC1 [WW-099]	5.00 to 6.00	5.00 to 6.00
CC(=O)Nc1ccc(S(=O)(=O)n2cc(-c3cccc4nc(Nc5ccc(OCCN6CCCC6)cc5)nn34)cn2)cc1 [XX-376]	6.00 to 7.00	–
COc1ccc(-c2cccc3nc(Nc4ccc5c(c4)OCCN5C)nn23)cc1 [XX-013]	6.00 to 7.00	> 6.00
CN1CCN(C(=O)c2cccc(Nc3nc4cccc(-c5ccc6c(c5)OCCO6)n4n3)c2)CC1 [XX-114]	6.00 to 7.00	–
Clc1cccc(Cn2cc(-c3cccc4nc(Nc5ccc(OCCN6CCCC6)cc5)nn34)cn2)c1 [XX-352]	6.00 to 7.00	–
Cc1cc(-c2ccc3c(c2)OCCO3)n2nc(Nc3ccc(OCCN4CCCC4)cc3)nc2c1 [XX-311, [5-(2,3-Dihydro-benzo[1,4]dioxin-6-yl)-7-methyl-[1,2,4]triazolo[1,5-a]pyridin-2-yl]-[4-(2-pyrrolidin-1-yl-ethoxy)-phenyl]-amine]	6.00 to 7.00	–
Cc1ccc(-c2cccc3nc(Nc4ccc(OCCCN5CCCCC5)cc4)nn23)cc1F [XX-421]	6.00 to 7.00	–
COc1ccc(-c2cccc3nc(Nc4ccnc(C(=O)NCCN5CCCC5)c4)nn23)cc1 [XX-386]	5.00 to 6.00	–
CCN(CC)CCOc1cc(Nc2nc3cccc(-c4ccc(OC(C)C)cc4)n3n2)ccn1 [XX-360]	≥ 7.00	–
c1cc(-c2ccc3occc3c2)n2nc(Nc3ccc(OCCN4CCCCC4)cc3)nc2c1 [XX-050]	≥ 7.00	> 6.00
c1cc(-c2ccc(-c3cn[nH]c3)cc2)n2nc(Nc3ccc(OCCN4CCCC4)cc3)nc2c1 [XX-187]	6.00 to 7.00	–
CCN(CC)CCOc1cc(Nc2nc3cccc(-c4ccc(OC)cc4)n3n2)cc(F)c1F [XX-418]	6.00 to 7.00	–
c1cc(-c2ccsc2)cc(-c2cccc3nc(Nc4ccc(OCCN5CCCC5)cc4)nn23)c1 [XX-166]	6.00 to 7.00	–
Clc1cccc(SCCn2cc(-c3cccc4nc(Nc5ccc(OCCN6CCCC6)cc5)nn34)cn2)c1 [XX-431]	6.00 to 7.00	–

SMILES	pIC50 [1]	pIC50 [2]
CCN(CC)CCN(C)c1cc(Nc2nc3cccc(-c4ccc(OC)cc4)n3n2)ccn1 [XX-326]	≥ 7.00	–
O=C(CN1CCCC1)Nc1cccc(Nc2nc3cccc(-c4ccc5c(c4)OCCO5)n3n2)c1 [XX-107]	6.00 to 7.00	–
CNCCOc1cccc(Nc2nc3cccc(-c4ccc5occc5c4)n3n2)c1 [XX-086]	≥ 7.00	> 6.00
O=S(=O)(C1CC1)n1cc(-c2cccc3nc(Nc4ccc(OCCN5CCCC5)cc4)nn23)cn1 [XX-375]	≥ 7.00	–
CCn1cc(-c2cccc3nc(Nc4ccc(OCCN5CCCC5)cc4)nn23)cn1 [XX-315]	6.00 to 7.00	–
O=C(Nc1cccc(-c2cccc3nc(Nc4ccc(OCCN5CCCC5)cc4)nn23)c1)c1ccco1 [XX-181]	6.00 to 7.00	–
COc1ccc(COc2cccc(-c3cccc4nc(Nc5ccc(OCCN6CCCC6)cc5)nn34)c2)cc1 [XX-340]	6.00 to 7.00	–
c1cc(-c2ccc3c(c2)OCCO3)n2nc(Nc3ccc(OCCN4CCCC4)nc3)nc2c1 [XX-102]	6.00 to 7.00	–
c1cc(-c2ccc3c(c2)OCO3)n2nc(Nc3ccc(OCCN4CCCC4)cc3)nc2c1 [XX-021]	≥ 7.00	> 6.00
Cn1ccc2cc(-c3cccc4nc(NC(=O)C5CC5)nn34)ccc21 [WW-066]	6.00 to 7.00	> 6.00
O=C(Nc1cccc(-c2cccc3nc(Nc4ccc(OCCN5CCCC5)cc4)nn23)c1)c1cccc(Cl)c1 [XX-177]	6.00 to 7.00	–
COc1cccc(CNc2cccc(-c3cccc4nc(Nc5ccc(OCCN6CCCC6)cc5)nn34)c2)c1 [XX-452]	6.00 to 7.00	–
CN1CCCC1CCNc1cccc2nc(NC(=O)C3CC3)nn12 (stereo not drawn) [WW-076]	5.00 to 6.00	5.00 to 6.00
CS(=O)(=O)Nc1cccc(-c2cccc3nc(Nc4ccc(OCCN5CCCC5)cc4)nn23)c1 [XX-224]	6.00 to 7.00	–
COc1ccc(-c2cccc3nc(NC(=O)C4CC4(F)F)nn23)cc1 (stereo not drawn) [WW-125]	5.00 to 6.00	5.00 to 6.00
C=Cn1cc(-c2cccc3nc(Nc4ccc(OCCN5CCCC5)cc4)nn23)cn1 [XX-328]	6.00 to 7.00	–
O=C(Nc1nc2cccc(-c3ccc(F)c(F)c3)n2n1)C1CC1 [WW-090]	5.00 to 6.00	5.00 to 6.00
CC(C)Oc1cccc(-c2cccc3nc(Nc4ccc(OCCN5CCCC5)cc4)nn23)c1 [XX-331]	5.00 to 6.00	–
COCCNCCOc1ccc(Nc2nc3cccc(-c4ccc(OC)cc4)n3n2)cc1 [XX-031]	6.00 to 7.00	> 6.00
Cc1noc(C)c1-c1cccc(-c2cccc3nc(Nc4ccc(OCCN5CCCC5)cc4)nn23)c1 [XX-464]	6.00 to 7.00	–
c1cc2nc(Nc3ccc(OCCN4CCCC4)cc3)nn2c(-c2ccc3c(c2)OCCO3)n1 [YY-010]	6.00 to 7.00	–
Cc1cc(Cn2cc(-c3cccc4nc(Nc5ccc(OCCN6CCCC6)cc5)nn34)cn2)no1 [XX-305]	6.00 to 7.00	–
O=C(Nc1nc2cccc(NCc3ccccn3)n2n1)C1CC1 [WW-075, Cyclopropanecarboxylic acid {5-[(pyridin-2-ylmethyl)-amino]-[1,2,4]triazolo[1,5-a]pyridin-2-yl}-amide]	5.00 to 6.00	5.00 to 6.00
Clc1ccc(COc2cccc(-c3cccc4nc(Nc5ccc(OCCN6CCCC6)cc5)nn34)c2)cc1 [XX-336]	5.00 to 6.00	–
OCc1cccc(-c2cccc3nc(Nc4ccc(OCCN5CCCC5)cc4)nn23)c1 [XX-090, (3-{2-[4-(2-Pyrrolidin-1-yl-ethoxy)-phenylamino]-[1,2,4]triazolo[1,5-a]pyridin-5-yl}-phenyl)-methanol]	≥ 7.00	–
